Source: publication PMC7948978, “MpeV is a lyase isomerase that ligates a doubly linked phycourobilin on the β-subunit of phycoerythrin I and II in marine Synechococcus” (The Journal of Biological Chemistry, 2020)

How the values were obtained:
[1] = molecular target: T1, CpeB (beta-subunit of phycoerythrin I) (Synechococcus sp. RS9916, UniProt Q05Q60); assay: LC-MS-MS of trypsin-digested purified protein after co-expression with lyases in E. coli; assay type: binding; details: covalent
T1 construct: with C-phycoerythrin class I alpha chain (phycoerythrin I alpha subunit)
Source text: (§1) LC-MS-MS of trypsin-digested purified protein after co-expression with lyases in E. coli on CpeB (beta-subunit of phycoerythrin I)

[2] = molecular target: T2, CpeB (beta-subunit of phycoerythrin I) (Synechococcus sp. RS9916, UniProt Q05Q60, C61A); assay: as above; assay type: binding; details: covalent, same co-expression
T2 construct: with C-phycoerythrin class I alpha chain (phycoerythrin I alpha subunit)
Source text: as §1

[3] = molecular target: T3, MpeB (beta-subunit of phycoerythrin II) (Synechococcus sp. RS9916, UniProt Q05Q49); assay: as above; assay type: binding; details: covalent
T3 construct: with C-phycoerythrin class II alpha chain (phycoerythrin II alpha subunit)
Source text: LC-MS-MS of trypsin-digested purified protein after co-expression with lyases in E. coli on MpeB (beta-subunit of phycoerythrin II)

[4] = molecular target: T4, CpeB (beta-subunit of phycoerythrin I) (Synechococcus sp. RS9916, UniProt Q05Q60, C50A); assay: as above; assay type: binding
T4 construct: with C-phycoerythrin class I alpha chain (phycoerythrin I alpha subunit)
Source text: LC-MS-MS of trypsin-digested purified protein after co-expression with lyases in E. coli on CpeB (beta-subunit of phycoerythrin I) | no peptide ions from the C50A mutant coexpressions modified with PUB at the C61 position

CpeS = molecular target: T5, CpeS (Synechococcus sp. RS9916, UniProt Q05Q42); assay: co-expression in E. coli; absorbance, zinc-enhanced fluorescence and LC-MS-MS of purified CpeB; assay type: cell-based; details: protein co-substrate CpeB or MpeB, site C82; CpeZ enhances
T5 construct: recombinant, pCpeS plasmid; co-expressed in E. coli with bilin synthesis genes and phycoerythrin subunits; CpeS itself not assayed purified
T5 sequence (Q05Q42 1-178): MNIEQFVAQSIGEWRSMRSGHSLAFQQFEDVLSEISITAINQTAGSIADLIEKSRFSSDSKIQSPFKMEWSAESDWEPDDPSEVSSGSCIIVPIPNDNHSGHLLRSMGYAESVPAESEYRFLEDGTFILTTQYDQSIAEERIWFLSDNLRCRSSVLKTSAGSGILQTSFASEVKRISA

[5] = molecular target: T6, CpeB (beta-subunit of phycoerythrin I) (Synechococcus sp. RS9916, UniProt Q05Q60, C50A/C61A); assay: zinc-enhanced bilin fluorescence of gel bands over anti-CpeB western blot; assay type: binding; details: covalent, site C82, attached by CpeS, co-expressed with CpeA, MpeV, CpeZ and bilin synthesis genes
T6 construct: with C-phycoerythrin class I alpha chain (phycoerythrin I alpha subunit)
Source text: zinc-enhanced bilin fluorescence of gel bands over anti-CpeB western blot on CpeB (beta-subunit of phycoerythrin I)

[6] = doubly linked at C50 and C61, attached by MpeV, same co-expression

Row | SMILES | β-50, 61 ^b / β-159 [1, 6] [%] | Bilin added ^a ([2]; single linkage by A ring at C50, attached by MpeV) [%] | β-50, 61 [3, 6] [%] | Bilin added ^a ([4]; covalent attachment at C61 tested, not detected, same co-expression) [%] | β-82 ^b / α-140 ([1]; site C82, attached by CpeS, co-expressed with CpeA, MpeV, CpeZ and bilin synthesis genes) [%] | Bilin added ^a ([2]; site C82, attached by CpeS) [%] | β-165 / β-82 ([3]; site C82, attached by CpeS, co-expressed with MpeA, MpeV, CpeZ and bilin synthesis genes) [%] | Bilin added ^a ([4]; covalent, site C82, attached by CpeS, co-expressed with CpeA, CpeS, MpeV, CpeZ and bilin synthesis genes) [%] | co-expression in E. coli; absorbance, zinc-enhanced fluorescence and LC-MS-MS of (CpeS) | Percentage chromophorylation (% ± SD) ^b [5]
1 | C=CC1=C(C)[C@@H](CC2=N/C(=C\c3[nH]c(C[C@H]4NC(=O)C(C)=C4C=C)c(C)c3CCC(=O)O)C(CCC(=O)O)=C2C)NC1=O [PUB, phycourobilin] | 29.4 | 7.6 | 84.7 | 0 | – | – | – | – | – | –
2 | C=CC1=C(C)C(CC2=NC(=Cc3[nH]c(C=C4NC(=O)C(C)C4=CC)c(C)c3CCC(=O)O)C(CCC(=O)O)=C2C)NC1=O (stereo not shown) [PEB, phycoerythrobilin] | – | – | – | – | 98.2 | 100 | 99.7 | 76.3 | The lyase CpeS is able to attach PEB to CpeB | 89.0 ± 12.3 % of WT
